In PMC3479356 (ChemMedChem, 2012):
Where two headings read alike, the source gives them in different places.

Columns and labels:
[1] = target: T1, recombinant human RXR receptor (Homo sapiens, UniProt P19793); assay: RXR mammalian two-hybrid assay
T1 sequence (P19793 1-462) 1: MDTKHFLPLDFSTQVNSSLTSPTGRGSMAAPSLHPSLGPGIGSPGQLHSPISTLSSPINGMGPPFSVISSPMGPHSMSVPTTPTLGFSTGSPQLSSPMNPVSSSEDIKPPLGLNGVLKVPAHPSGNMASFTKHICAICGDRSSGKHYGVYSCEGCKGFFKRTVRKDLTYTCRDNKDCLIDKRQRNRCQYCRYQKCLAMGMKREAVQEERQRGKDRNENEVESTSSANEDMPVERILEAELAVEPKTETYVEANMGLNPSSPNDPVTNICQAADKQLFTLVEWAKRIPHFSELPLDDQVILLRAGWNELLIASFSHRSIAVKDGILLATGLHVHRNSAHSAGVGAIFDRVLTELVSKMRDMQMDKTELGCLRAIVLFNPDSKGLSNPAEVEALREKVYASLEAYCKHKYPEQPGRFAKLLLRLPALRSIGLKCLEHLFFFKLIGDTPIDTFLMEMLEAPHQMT
T1 sequence (P19793 1-462) 2: T1 sequence (P19793 1-462) 1

human RXRα = target: T2, human RXRα (Homo sapiens, UniProt P19793); assay: RXRE-mediated transcription assay; format: cell-based; details: 10^−7 M, 24 h
T2 sequence (P19793 1-462): T1 sequence (P19793 1-462) 1

RXR = details: Caco-2 colon cancer cells; cited from earlier work

Compound: C=C(c1ccc(C(=O)O)c(Cl)c1)c1cc2c(cc1C)C(C)(C)CCC2(C)C [Analog 12, 2-Chloro-4-(1-(1,2,3,4-tetrahydro-1,1,4,4,6-pentamethylnaphthalen-7-yl)vinyl)benzoic acid]
- EC50 [1]: 90 nM

Compound: C=C(c1ccc(C(=O)O)c(Br)c1)c1cc2c(cc1C)C(C)(C)CCC2(C)C [Analog 14, 2-Bromo-4-(1-(1,2,3,4-tetrahydro-1,1,4,4,6-pentamethylnaphthalen-7-yl)vinyl)benzoic acid]
- EC50 [1]: 150 nM

Compound: C=C(c1ccc(C(=O)O)c(I)c1)c1cc2c(cc1C)C(C)(C)CCC2(C)C [Analog 16, 2-Iodo-4-(1-(1,2,3,4-tetrahydro-1,1,4,4,6-pentamethylnaphthalen-7-yl)vinyl)benzoic acid]
- EC50 [1]: 280 nM
- RXR binding and homodimerization, % of the parent compound 1 efficiency ([1]; 10^−7 M, 24 h, independent of the cell line (Caco-2 and HCT-116)): ~20%

Compound: C=C(c1cc(F)c(C(=O)O)c(F)c1)c1cc2c(cc1C)C(C)(C)CCC2(C)C [Analog 18, 2,6-difluoro-4-(1-(1,2,3,4-tetrahydro-1,1,4,4,6-pentamethylnaphthalen-7-yl)vinyl)benzoic acid]
- RXR homodimer-mediated transcription compared with ethanol vehicle (human RXRα; Caco-2 and HCT-116 cells): significantly better than that of the ethanol vehicle

Compound: Cc1cc2c(cc1C(=O)c1cc(F)c(C(=O)O)c(F)c1)C(C)(C)CCC2(C)C [Analog 19, 2,6-Difluoro-4-(1-(3,5,5,8,8-pentamethyl-5,6,7,8-tetrahydronaphthalen-2-yl)carbonyl)benzoic acid]
- EC50 ([1]; read-out: EC50 value, transfected HCT-116 cells, full dose-response curves 10^−10 to 10^−5 M, ± S.D.): 550 nM

Compound: C=C(c1ccc(C(=O)O)c(F)c1)c1cc2c(cc1C)C(C)(C)CCC2(C)C [Compound 11, 2-fluoro-4-(1-(1,2,3,4-tetrahydro-1,1,4,4,6-pentamethylnaphthalen-7-yl)vinyl)benzoic acid]
- RXR activation compared with 1 (RXR): slightly higher RXR activation

Compound: Cc1cc2c(cc1C(=O)c1ccc(C(=O)O)c(I)c1)C(C)(C)CCC2(C)C [Compound 17, 2-Iodo-4-(1-(3,5,5,8,8-pentamethyl-5,6,7,8-tetrahydronaphthalen-2-yl)carbonyl)benzoic acid]
- RXR homodimer-mediated transcription compared with ethanol vehicle (human RXRα; Caco-2 cells): not able to activate transcription
- RXR homodimer-mediated transcription compared with ethanol vehicle (human RXRα; HCT-116 cells): significant activity
